Assays:
Bcl-2 protein = Bcl-2 protein (Homo sapiens, UniProt P10415); assay: ELISA assay, competitive binding to Bcl-2 protein (biotin-Bim/streptavidin plate); conditions: method calculates average IC50, read-out: Bcl-2 binding constants
Protocol: (§1) The present inventors used fluorescence polarization assay to detect the bonding force between the protein and the compounds in a previous study (PCT/CN2010/075521). […] ELISA assay was used to detect the bonding force between the compounds and the protein in this application.
(§2) Biotinylated Bim peptide was diluted to 0.09 μg/mL in SuperBlock blocking buffer in PBS and incubated for 1.5 h in 96-well microtiter plates already coated with streptavidin to allow the formation of the complex between Biotin-Bim and streptavidin. All incubations were performed at room temperature unless otherwise noted. Each inhibitor was first dissolved in pure DMSO to obtain a 10 mM stock solution. For each tested inhibitor, different concentrations of the inhibitor were incubated with 20 nM His-tagged Mcl-1 protein in PBS for 1 h with a final DMSO concentration of 4%. The plates were washed three times with PBS containing 0.05% Tween-20. The inhibitor and protein mixture (100 μL) were transferred to the plate containing the biotin-Bim/streptavidin complex and incubated for 2 h. The plate was then washed as before and mouse anti-His antibody that conjugated with horseradish peroxidase was added into the wells and incubated for 1 h. The plate was then washed with PBS containing 0.05% Tween-20. Finally, TMB was added to each well; the enzymatic reaction was stopped after 30 min by addition of H2SO4 (100 μL, 2M). Absorbances were measured with a TECAN GENios (Swiss, TECAN) microplate reader using a wavelength of 450 nm. Three independent experiments were performed with each inhibitor to calculate average IC50 value and standard deviation (SD).
(§3) The BH3 analogous degrees of other 11 compounds were detected by using the experimental method as described above. The protein binding constant (binding constant in table 1) between them and Bcl-2 and Mcl-1 proteins were also on nM grade.

His-tagged Mcl-1 protein = His-tagged Mcl-1 protein (Homo sapiens, UniProt Q07820); assay: ELISA assay, competitive binding to Mcl-1 protein (biotin-Bim/streptavidin plate); conditions: 20 nM His-tagged Mcl-1, method calculates average IC50, read-out: Mcl-1 binding constants
His-tagged Mcl-1 protein, sequence (Q07820 whole entry): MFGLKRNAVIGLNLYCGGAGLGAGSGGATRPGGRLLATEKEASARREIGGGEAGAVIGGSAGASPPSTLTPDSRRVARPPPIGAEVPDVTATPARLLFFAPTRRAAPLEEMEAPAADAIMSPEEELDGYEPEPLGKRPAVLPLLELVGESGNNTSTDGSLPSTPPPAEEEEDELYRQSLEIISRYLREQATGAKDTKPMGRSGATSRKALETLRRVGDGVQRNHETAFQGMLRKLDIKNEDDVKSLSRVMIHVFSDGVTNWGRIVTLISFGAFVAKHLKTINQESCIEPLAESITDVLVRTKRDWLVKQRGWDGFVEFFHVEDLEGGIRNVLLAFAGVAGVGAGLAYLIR
Protocol: as §1, §2, §3

[1] = molecular target: T1, interaction between Bcl-2 and Bax (Homo sapiens, UniProt P10415); assay: Intracellular FRET, Bcl-2-CFP/Bax-YFP in Hela cells; type: cell-based; conditions: for Time (time period after which the interaction between Bcl-2 and Bax was interfered): at the concentration given
T1 construct: expressed in transfected cells; host or cells: Hela cells
T1 sequence (P10415 whole entry): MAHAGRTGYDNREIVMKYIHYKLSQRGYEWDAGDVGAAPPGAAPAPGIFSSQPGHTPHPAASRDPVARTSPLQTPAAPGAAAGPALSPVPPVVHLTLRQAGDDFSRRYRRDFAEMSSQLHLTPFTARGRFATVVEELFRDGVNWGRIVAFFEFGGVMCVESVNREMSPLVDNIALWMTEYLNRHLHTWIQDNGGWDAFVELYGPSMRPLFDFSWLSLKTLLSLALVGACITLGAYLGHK
Protocol: 2 μg of Bcl-2-CFP and Bax-YFP plasmids were transfected separately or simultaneously into Hela cells by using calcium phosphate coprecipitation method, 24 hours later, the cells were inoculated in a 6-well plate (2×10^5 cells/well), and the compound 1 to be detected dissolved in DMSO was added there into until the final concentration (2, 5, 10 and 15 μM) was achieved. 24 hours later (please refer to FIG. 5); the cells were washed with PBS for three times. The fluorescence value was detected by GENIOS fluorescence enzyme-labelled meter (TECAN, Swiss). In time-dependent experiment, the transfected cells were inoculated in a 6-well plate, after that, 40 μM of the compound was added thereinto. 3, 6 and 24 hours later (FIG. 6), the fluorescence intensities were detected by plate reader. As for the cell group in which only Bcl-2-CFP plasmid was transfected, the values at 475 nm emission wave length and 433 nm excitation wave length were recorded. As for the cell group in which only Bax-YFP plasmid was transfected, the values at 527 nm emission wave length and 505 nm excitation wave length were recorded. As for the cell group in which Bcl-2-CFP and Bax-YFP plasmids were co-transfected, the values at 527 nm and 475 emission wave lengths and 433 nm excitation wave length were recorded. The ratio of fluorescence intensity at 527 nm and 475 nm emission wave lengths was FRET. The FRET for the control group in which the plasmid was solely transfected was set as 1.0. […] In the cotransfected cells, the FRET increased up to 2.0 due to the interaction of Bcl-2 protein and Bax protein, and that the interference to the interaction between the two proteins increased and FRET decreased with the increase of the drug concentration and time. The cellular vitality was detected by MTT method. When the concentration of the compound reached 1 μM, the interaction between Bcl-2 and Bax can be interfered after 2 hours, and the results appeared concentration-time dependent trend.
Wherein the concentration and time meant that the detected compound interfered with the interaction between Bcl-2 and Bax at the concentration for the time period.

[2] = test system: BAX shift towards the chondriosome; assay: Co-localization between Bax protein and chondriosome, Bax-YFP in MCF-7 cells; type: cell-based; conditions: for Doses (concentration at which the compound drove the BAX to shift towards the chondriosome): Bax-YFP/Mito Tracker Red; for Time (time period after which BAX shifted towards the chondriosome): at the concentration given
Protocol: 5 μg of Bax-YFP plasmid was transfected into MCF-7 cells by using calcium phosphate coprecipitation method, 24 hours later, the cells were inoculated in a 6-well plate (0.2×10^6 cells/well), and 10 μM of the compound 1 to be detected was added thereinto. 6 hours later, the cells were washed with PBS and hatched away from light with 50 nM Mito Tracker Red CMXRos (chondriosome specific probes; red) for 10 minutes. Then the cells were washed with PBS for three times, and the fluorescent image was scanned with Radiance2000 laser confocal microscopy (Bio-Rad, USA). Meanwhile, dual channel scanning was carried out, one channel was used to scan the green fluorescence of Bax-YFP, and the other channel was used to scan the red fluorescence of the CMXRos probe for indicating the chondriosome. […] When the Bax protein was localized on the chondriosome, the green and red fluorescence was superimposed into orange, as shown in FIG. 7.
Other 24 compounds were detected by the same experimental method as described above. […] Wherein the concentration and time meant that the detected compound simulated the BH3-only protein and driven the BAX to shift towards the chondriosome at the concentration for the time period.

MCF-7 cells = assay: Cytotoxicity by MTT, cells without plasmid transfection; type: cell-based; conditions: Homo sapiens, MCF7; MCF-7, MTT, 48 hours; read-out: IC50 value in untransfected cells
Protocol: (§4) 3 μg of BAX/BAK interfering plasmid was transfected into MCF-7 cells by using calcium phosphate coprecipitation method, 24 hours later, the cells were collected. The expressions after the BAX and BAK proteins interfered with RNA was detected by Western, and the cell groups without plasmid transfection were treated similarly and were set as the control group. The transfected cells were inoculated in a 96-well plate (1×10^5 cells/well), the control experiment of the cell group without plasmid transfection was carried out in parallel. The compound 1 to be detected was added thereinto according to the concentration gradient designed before the experiment. 48 hours later, the cellular vitality was detected by MTT. The experimental results were shown in FIG. 9, Gossypol as nonspecific BH3 analogue was treated in parallel.
(§5) Other 24 compounds were also detected by the same experimental method as described above, the differences of IC50 values between the transfected cells and the without plasmid transfection cells were compared.

[3] = test system: MCF-7 cells transfected with BAX/BAK interfering plasmid; assay: Cytotoxicity by MTT, cells transfected with BAX/BAK interfering plasmid; type: cell-based; conditions: Homo sapiens, MCF7; MCF-7 with BAX/BAK interfering plasmid, MTT, 48 hours
Protocol: as §4, §5

Bcl-2 = assay: Western blotting, semiquantitative analysis of Bcl-2 protein bands; type: cell-based; conditions: control = 1, tumor cells
Protocol: (§6) The interest protein was detected by the corresponding antibody. The expression of the interest protein in the cells was detected by horseradish peroxidase-labeled secondary antibodies in combination with ECL coloration method. […] The concentration of the protein bands in the Western images were carried out semiquantitative analysis and normalization treatment with KODAK Gel Logic 1500 imaging system software.

Mcl-1 = assay: Western blotting, semiquantitative analysis of Mcl-1 protein bands; type: cell-based; conditions: control = 1, tumor cells
Protocol: as §6

Bcl-2 protein, sequence (P10415 whole entry, species assumed): as the sequence (P10415 whole entry) above

Compound	IC50 (Bcl-2 protein)	IC50 (His-tagged Mcl-1 protein)	Doses (concentration at which the compound interfered with the interaction between Bcl-2 and Bax) [1]	Time (time period after which the interaction between Bcl-2 and Bax was interfered) [1]	Doses (concentration at which the compound drove the BAX to shift towards the chondriosome) [2]	Time (time period after which BAX shifted towards the chondriosome) [2]	IC50 (MCF-7 cells)	IC50 [3]	concentration of the protein bands (semiquantitative, normalized), Bcl-2 (Bcl-2; 6 h)	concentration of the protein bands (semiquantitative, normalized), Bcl-2 (Bcl-2; 12 h)	concentration of the protein bands (semiquantitative, normalized), Bcl-2 (Bcl-2; 18 h)	concentration of the protein bands (semiquantitative, normalized), Bcl-2 (Bcl-2; 24 h)	concentration of the protein bands (semiquantitative, normalized), Mcl-1 (Mcl-1; 2 h)	concentration of the protein bands (semiquantitative, normalized), Mcl-1 (Mcl-1; 6 h)	melting point
CCCCNC1=C2C(=NC1=O)c1cccc3c(Sc4ccc(Br)cc4)ccc2c13 [Compound 7, 3-(4-Bromo-phenylsulfanyl)-9-butylamino-acenaphtho[1,2-b]pyrrol-8-one]	66 nM	14 nM	0.3 µM	3 h	0.5 µM	3 h	1200 nM	> 50000 nM	0.99	0.99	0.51	0.20	0.68	0.32	245 to 246 °C
O=C1N=C2C(=C1NCCCc1ccccc1)c1ccc(Sc3ccc(Br)cc3)c3cccc2c13 [Compound 8, 3-(4-Bromo-phenylsulfanyl)-9-(3-phenyl-propylamino)-acenaphtho[1,2-b]pyrrol-8-one]	6 nM	4 nM	0.1 µM	1 h	0.1 µM	1 h	1000 nM	> 50000 nM	0.99	0.99	0.42	0.10	0.52	0.22	272 to 273 °C
CCCCNC1=C2C(=NC1=O)c1cccc3c(N4CCSCC4)ccc2c13 [Compound 9, 9-Butylamino-3-thiomorpholin-4-yl-acenaphtho[1,2-b]pyrrol-8-one]	63 nM	16 nM	0.4 µM	2 h	0.6 µM	3 h	1300 nM	> 50000 nM	0.99	0.99	0.49	0.20	0.60	0.29	239 to 240 °C
O=C1N=C2C(=C1NCCCc1ccccc1)c1ccc(N3CCSCC3)c3cccc2c13 [Compound 10, 9-(3-Phenyl-propylamino)-3-thiomorpholin-4-yl-acenaphtho[1,2-b]pyrrol-8-one]	17 nM	5 nM	0.1 µM	2 h	0.2 µM	1 h	500 nM	> 50000 nM	0.99	0.99	0.45	0.12	0.53	0.21	265 to 266 °C
CCCCNC1=C2C(=NC1=O)c1cccc3c(Oc4ccc(C(C)C)cc4)ccc2c13 [Compound 11, 9-Butylamino-3-(4-isopropyl-phenoxy)-acenaphtho[1,2-b]pyrrol-8-one]	112 nM	46 nM	0.3 µM	2 h	0.9 µM	3 h	4200 nM	> 50000 nM	0.99	0.99	0.57	0.22	0.70	0.34	243 to 244 °C

Source: patent US8614333B2, “Acenaphtho heterocyclic compound and application thereof” (Dalian University of Technology, priority 2010, dated 2013)
